Measurements taken from patent publication US10654884B2 (Vitae Pharmaceuticals, Inc., priority 2014, dated 2020).

Tests used:
human CD73 = biological target: T1, human CD73 (Homo sapiens, UniProt P21589); assay: Inhibition of 5′-Nucleotidase Activity of CD73 (Assay 1); assay type: biochemical; details: human CD73 4 ng/ml, 50 μM CMP, 20 min at RT, malachite green readout; read-out: Assay 1: IC50, inhibition of 5′-nucleotidase activity of CD73
T1 construct: purchased R&D Systems 5795-EN-010
T1 sequence (P21589 27-549): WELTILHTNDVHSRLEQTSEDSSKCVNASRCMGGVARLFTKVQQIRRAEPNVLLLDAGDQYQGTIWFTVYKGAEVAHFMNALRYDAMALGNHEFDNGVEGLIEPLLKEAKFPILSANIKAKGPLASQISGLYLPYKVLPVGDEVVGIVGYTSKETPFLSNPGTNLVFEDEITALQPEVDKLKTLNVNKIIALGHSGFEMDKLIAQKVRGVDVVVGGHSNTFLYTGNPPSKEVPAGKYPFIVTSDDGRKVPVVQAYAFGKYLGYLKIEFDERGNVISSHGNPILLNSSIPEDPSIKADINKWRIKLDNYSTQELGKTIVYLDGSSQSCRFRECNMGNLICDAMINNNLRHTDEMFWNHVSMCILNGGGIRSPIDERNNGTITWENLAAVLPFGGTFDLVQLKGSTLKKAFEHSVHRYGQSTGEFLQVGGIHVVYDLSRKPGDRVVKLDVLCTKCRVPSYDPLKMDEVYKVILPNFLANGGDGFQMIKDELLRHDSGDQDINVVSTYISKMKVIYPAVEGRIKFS
Summary of the method: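 Human CD73 (4 ng/ml final) was incubated with 50 μM CMP in 25 mM Tris-HCl pH 7.4, 0.005% Brij-35 for 20 min at RT. Reactions were stopped with malachite green reagent and absorbance was read at 620 nm. IC50 came from a 4-parameter logistic fit.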

[1] = biological target: T2, CD73 on U138 neuroglioma cells (Homo sapiens, UniProt P21589); assay: Inhibition of Ecto-5′-Nucleotidase Activity in U138 Neuroglioma Cells (Assay 2); assay type: cell-based; details: 50 μM CMP, 2 hr at 37° C., malachite green readout, read-out: Assay 2: IC50, inhibition of ecto-5′-nucleotidase activity in U138 neuroglioma cells
T2 construct: U138 neuroglioma cells, which express CD73 on their surface; endogenous in cells; host or cells: U138 neuroglioma cells (ATCC)
T2 sequence (P21589 27-549): T1 sequence (P21589 27-549)
Summary of the method: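 Whole-cell CD73 activity in U138 human neuroglioma cells seeded the day before, washed free of phosphate, then given test compound dilutions with 50 μM CMP in HEPES-buffered saline, pH 7.4, DMSO ≤0.1%. Incubated 2 hr at 37° C; released inorganic phosphate in supernatant measured by malachite green; IC50 by nonlinear regression.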

Structure (SMILES) | IC50 (human CD73) [nM] | IC50 [1] [nM]
COc1nc(OC)c2ncn([C@@H]3O[C@H](COC(C(=O)OC(C)(C)C)P(=O)(O)O)[C@@H](O)[C@H]3O)c2n1 (stereo partly drawn) [Example 33, (2-(tert-butoxy)-1-(((2R,3S,4R,5R)-5-(2,6-dimethoxy-9H-purin-9-yl)-3,4-dihydroxytetrahydrofuran-2-yl)methoxy)-2-oxoethyl)phosphonic Acid] | 100 to 1000 | 100 to 1000
Cc1nc(C)c2ncn([C@@H]3O[C@H](COC(C(=O)O)P(=O)(O)O)[C@@H](O)[C@H]3O)c2n1 (stereo partly drawn) [Example 38, 2-(((2R,3S,4R,5R)-5-(2,6-dimethyl-9H-purin-9-yl)-3,4-dihydroxytetrahydrofuran-2-yl)methoxy)-2-phosphonoacetic acid] | 100 to 1000 | > 1000
CCOC(=O)C(OC[C@H]1O[C@@H](n2cnc3c(N)nc(SC)nc32)[C@H](O)[C@@H]1O)P(=O)(O)O (stereo partly drawn) [Example 43, (1-(((2R,3S,4R,5R)-5-(6-amino-2-(methylthio)-9H-purin-9-yl)-3,4-dihydroxytetrahydrofuran-2-yl)methoxy)-2-ethoxy-2-oxoethyl)phosphonic Acid] | 100 to 1000 | > 1000
Nc1nc(Cl)nc2c1ncn2[C@@H]1O[C@H](COC(Cc2ccc(Cl)cc2)(C(=O)O)C(=O)O)[C@@H](O)[C@H]1O [Example 47, 2-(((2R,3S,4R,5R)-5-(6-amino-2-chloro-9H-purin-9-yl)-3,4-dihydroxytetrahydrofuran-2-yl)methoxy)-2-(4-chlorobenzyl)malonic acid] | < 100 | < 100
N#Cc1ccc(CC(OC[C@H]2O[C@@H](n3cnc4c(N)nc(Cl)nc43)[C@H](O)[C@@H]2O)(C(=O)O)C(=O)O)cc1 [Example 48, 2-(((2R,3S,4R,5R)-5-(6-amino-2-chloro-9H-purin-9-yl)-3,4-dihydroxytetrahydrofuran-2-yl)methoxy)-2-(4-cyanobenzyl)malonic acid] | < 100 | < 100
Nc1nc(F)nc2c1ncn2[C@@H]1O[C@H](CO[C@@H](C(=O)O)P(=O)(O)O)[C@@H](O)[C@H]1O [Example 53, (R)-2-(((2R,3S,4R,5R)-5-(6-amino-2-fluoro-9H-purin-9-yl)-3,4-dihydroxytetrahydrofuran-2-yl)methoxy)-2-phosphonoacetic Acid] | < 100 | 100 to 1000
CC(C)(C)OC(=O)[C@H](OC[C@H]1O[C@@H](n2cnc3c(N)nc(C#N)nc32)[C@H](O)[C@@H]1O)P(=O)(O)O [Example 54a, ((R)-1-(((2R,3S,4R,5R)-5-(6-amino-2-cyano-9H-purin-9-yl)-3,4-dihydroxytetrahydrofuran-2-yl)methoxy)-2-(tert-butoxy)-2-oxoethyl)phosphonic Acid] | 100 to 1000 | > 1000
O=C(Nc1nc(I)nc2c1ncn2[C@@H]1O[C@H](COC(C(=O)O)P(=O)(O)O)[C@@H](O)[C@H]1O)c1ccccc1 (stereo partly drawn) [Example 58, 2-(((2R,3S,4R,5R)-5-(6-benzamido-2-iodo-9H-purin-9-yl)-3,4-dihydroxytetrahydrofuran-2-yl)methoxy)-2-phosphonoacetic acid] | < 100 | 100 to 1000
Nc1nc(I)nc2c1ncn2[C@@H]1O[C@H](CO[C@H](C(=O)O)P(=O)(O)O)[C@@H](O)[C@H]1O [Example 59, (S)-2-(((2R,3S,4R,5R)-5-(6-amino-2-iodo-9H-purin-9-yl)-3,4-dihydroxytetrahydrofuran-2-yl)methoxy)-2-phosphonoacetic Acid] | < 100 | 100 to 1000
O=C(O)C(OC[C@H]1O[C@@H](n2cnc3c(Cl)nc(Cl)nc32)[C@H](O)[C@@H]1O)P(=O)(O)O (stereo partly drawn) [Example 62, 2-(((2R,3S,4R,5R)-5-(2,6-dichloro-9H-purin-9-yl)-3,4-dihydroxytetrahydrofuran-2-yl)methoxy)-2-phosphonoacetic acid] | < 100 | 100 to 1000
CCOc1nc(Cl)nc2c1ncn2[C@@H]1O[C@H](COC(C(=O)O)P(=O)(O)O)[C@@H](O)[C@H]1O (stereo partly drawn) [Example 63, 2-(((2R,3S,4R,5R)-5-(2-chloro-6-ethoxy-9H-purin-9-yl)-3,4-dihydroxytetrahydrofuran-2-yl)methoxy)-2-phosphonoacetic acid] | < 100 | 100 to 1000
O=C(O)C(OC[C@H]1O[C@@H](n2cnc3c(Nc4ccccc4)ncnc32)[C@H](O)[C@@H]1O)P(=O)(O)O (stereo partly drawn) [Example 65, 2-(((2R,3S,4R,5R)-3,4-dihydroxy-5-(6-(phenylamino)-9H-purin-9-yl)tetrahydrofuran-2-yl)methoxy)-2-phosphonoacetic acid] | 100 to 1000 | 100 to 1000
O=C(O)C(OC[C@H]1O[C@@H](n2cnc3c(N4CCC(O)CC4)ncnc32)[C@H](O)[C@@H]1O)P(=O)(O)O (stereo partly drawn) [Example 66, 2-(((2R,3S,4R,5R)-3,4-dihydroxy-5-(6-(4-hydroxypiperidin-1-yl)-9H-purin-9-yl)tetrahydrofuran-2-yl)methoxy)-2-phosphonoacetic acid] | 100 to 1000 | > 1000
CNc1ncnc2c1ncn2[C@@H]1O[C@H](COC(C(=O)O)P(=O)(O)O)[C@@H](O)[C@H]1O (stereo partly drawn) [Example 67, 2-(((2R,3S,4R,5R)-3,4-dihydroxy-5-(6-(methylamino)-9H-purin-9-yl)tetrahydrofuran-2-yl)methoxy)-2-phosphonoacetic acid] | 100 to 1000 | > 1000
O=C(O)C(OC[C@H]1O[C@@H](n2cnc3c(N[C@@H]4CCOC4)nc(Cl)nc32)[C@H](O)[C@@H]1O)C(=O)O [Example 68, 2-(((2R,3S,4R,5R)-5-(2-chloro-6-(((R)-tetrahydrofuran-3-yl)amino)-9H-purin-9-yl)-3,4-dihydroxytetrahydrofuran-2-yl)methoxy)malonic acid] | < 100 | 100 to 1000
O=C(O)C(OC[C@H]1O[C@@H](n2cnc3c(N[C@@H]4CCOC4)nc(Cl)nc32)[C@H](O)[C@@H]1O)C(=O)O [Example 69, (R)-2-(((2R,3S,4R,5R)-5-(2-chloro-6-(((R)-tetrahydrofuran-3-yl)amino)-9H-purin-9-yl)-3,4-dihydroxytetrahydrofuran-2-yl)methoxy)malonic Acid] | 100 to 1000 | > 1000
CCOC(=O)[C@H](OC[C@H]1C[C@@H](n2cnc3cccc(C#N)c3c2=O)[C@H](O)[C@@H]1O)P(=O)(O)O [Example 73, ((R)-1-(((1R,2R,3S,4R)-4-(5-cyano-4-oxoquinazolin-3(4H)-yl)-2,3-dihydroxycyclopentyl)methoxy)-2-ethoxy-2-oxoethyl)phosphonic Acid] | < 100 | 100 to 1000

Results, then the compound that gave them:

IC50 (human CD73) [nM] | IC50 [1] [nM] | Structure (SMILES)
100 to 1000 | 100 to 1000 | CCNc1nc(Cl)nc2c1ncn2[C@@H]1O[C@H](CO[C@](C)(C(=O)OCC)P(=O)(O)O)[C@@H](O)[C@H]1O [Example 29a, ((S)-2-(((2R,3S,4R,5R)-5-(2-chloro-6-(ethylamino)-9H-purin-9-yl)-3,4-dihydroxytetrahydrofuran-2-yl)methoxy)-1-ethoxy-1-oxopropan-2-yl)phosphonic Acid]
100 to 1000 | > 1000 | COc1nc(OC)c2ncn([C@@H]3O[C@H](COC(C(=O)O)P(=O)(O)O)[C@@H](O)[C@H]3O)c2n1 (stereo partly drawn) [Example 33a, 2-(((2R,3S,4R,5R)-5-(2,6-dimethoxy-9H-purin-9-yl)-3,4-dihydroxytetrahydrofuran-2-yl)methoxy)-2-phosphonoacetic acid]
> 1000 | > 1000 | Nc1nc(F)nc2c1ncn2[C@@H]1O[C@H](CO[C@H](C(=O)O)P(=O)(O)O)[C@@H](O)[C@H]1O [Example 53a, (S)-2-(((2R,3S,4R,5R)-5-(6-amino-2-fluoro-9H-purin-9-yl)-3,4-dihydroxytetrahydrofuran-2-yl)methoxy)-2-phosphonoacetic acid]
< 100 | 100 to 1000 | Nc1nc(I)nc2c1ncn2[C@@H]1O[C@H](CO[C@@H](C(=O)O)P(=O)(O)O)[C@@H](O)[C@H]1O [Example 59a, (R)-2-(((2R,3S,4R,5R)-5-(6-amino-2-iodo-9H-purin-9-yl)-3,4-dihydroxytetrahydrofuran-2-yl)methoxy)-2-phosphonoacetic Acid]
< 100 | 100 to 1000 | O=C(O)C(OC[C@H]1O[C@@H](n2cnc3c(NO)nc(I)nc32)[C@H](O)[C@@H]1O)P(=O)(O)O (stereo partly drawn) [Example 59b, 2-(((2R,3S,4R,5R)-3,4-dihydroxy-5-(6-(hydroxyamino)-2-iodo-9H-purin-9-yl)tetrahydrofuran-2-yl)methoxy)-2-phosphonoacetic acid]
